From patent US9006243B2, “HIV inhibiting 6-substituted pyrimidines” (Janssen R&D Ireland, priority 2006, dated 2015)

Experiments:
[1] = test system: HIV strain IIIB (wild type); assay: microbe, parasite or virus in culture; conditions: Human immunodeficiency virus 1, IIIB, 72 h, read-out: IIIB pEC50 (−log EC50) (converted)
Method: Compounds of the invention were tested for their potency against wild type virus and clinically isolated HIV strains harboring one or more mutations associated with resistance to reverse transcriptase inhibitors. Antiviral activity was evaluated using a cellular assay performed according to the following procedure.
The human T-cell line MT4 was engineered with Green Fluorescent Protein (GFP) and a HIV-specific promoter, HIV-1 long terminal repeat (LTR). This cell line, designated MT4 LTR-EGFP, can be used for the in vitro evaluation of anti-HIV activity of investigational compounds. In HIV-1 infected cells, the Tat protein is produced, which upregulates the LTR promotor and eventually leads to stimulation of the GFP reporter production, allowing to measure ongoing HIV-infection fluorometrically.
Analogously, MT4 cells were engineered with GFP and the constitutional cytomegalovirus (CMV) promotor. […] Cytotoxic investigational compounds reduce GFP levels of mock-infected MT4 CMV-EGFP cells.
The ratio of CC50 to EC50 is defined as the selectivity index (SI) and is an indication of the selectivity of the anti-HIV activity of the inhibitor. The ultimate monitoring of HIV-1 infection and cytotoxicity was done using a scanning microscope. Image analysis allows very sensitive detection of viral infection. Measurements were done before cell necrosis, which usually takes place about five days after infection, in particular measurements were performed three days after infection.
The columns IIIB, L100I, etc. in the table list the pEC50 (−log EC50) values against various strains IIIB, L100I, etc.; pSI lists the −log SI values.
Strain IIIB is wild type HIV strain.

HIV strain L100I + K103N = assay: microbe, parasite or virus in culture; type: cell-based, HIV-1; conditions: Human immunodeficiency virus 1, 72 h, read-out: L100I + K103N pEC50 (−log EC50) (converted)
Source text: (§1) Image analysis allows very sensitive detection of viral infection.

HIV strain Y181C = assay: microbe, parasite or virus in culture; type: cell-based, HIV-1; conditions: Human immunodeficiency virus 1, 72 h, read-out: Y181C pEC50 (−log EC50) (converted)
Source text: as §1

[2] = test system: HIV strain MDR (L100I, K103N, Y181C, E138G, V179I, L2214F, V278V/I and A327A/V in HIV reverse transcriptase); assay: microbe, parasite or virus in culture; type: cell-based, HIV-1; conditions: Human immunodeficiency virus 1, 72 h, read-out: MDR pEC50 (−log EC50) (converted)
Source text: as §1
“MDR” refers to a strain that contains mutations L100I, K103N, Y181C, E138G, V179I, L2214F, V278V/I and A327A/V in HIV reverse transcriptase.

HIV strain K103N + Y181C = assay: microbe, parasite or virus in culture; type: cell-based, HIV-1; conditions: Human immunodeficiency virus 1, 72 h, read-out: K103N + Y181C pEC50 (−log EC50) (converted)
Source text: as §1

SMILES	EC50 [1] [nM]	EC50 (HIV strain L100I + K103N) [nM]	EC50 (HIV strain Y181C) [nM]	EC50 [2] [nM]	melting point [°C]	EC50 (HIV strain K103N + Y181C) [nM]
Cc1cc(/C=C/C#N)cc(C)c1Nc1cc(C(=O)NCCC#N)nc(Nc2ccc(C#N)cc2)n1 [Compound 6]	8.91	40.7	20	1860	250	–
Cc1cc(/C=C/C#N)cc(C)c1Nc1cc(-c2cccnc2)nc(Nc2ccc(C#N)cc2)n1 [Compound 1]	3.47	115	11	1780	180	19.5
Cc1cc(/C=C/C#N)cc(C)c1Nc1cc(C(O)c2nccs2)nc(Nc2ccc(C#N)cc2)n1 (stereo not shown) [Compound 11]	1.82	6.31	4.07	692	147	19.1
Cc1cc(/C=C/C#N)cc(C)c1Nc1cc(C(=O)NCc2ccco2)nc(Nc2ccc(C#N)cc2)n1 [Compound 8]	5.5	85.1	18.6	8130	256	31.6
Cc1cc(/C=C/C#N)cc(C)c1Nc1cc(C(=O)NCCF)nc(Nc2ccc(C#N)cc2)n1 [Compound 5]	1.58	25.1	6.31	1410	> 250	4.37
Cc1cc(/C=C/C#N)cc(C)c1Nc1cc(/C=N/O)nc(Nc2ccc(C#N)cc2)n1 [Compound 34]	3.98	12.6	10	501	220	3.98
COCCNC(=O)c1cc(Nc2c(C)cc(/C=C/C#N)cc2C)nc(Nc2ccc(C#N)cc2)n1 [Compound 4]	3.09	–	13.8	2820	130	10.2
